Consider 39 sequences from the OligoGym collection.

This data set has as its target DGAT2. The note with it: ASO.

Several values for one entry are separate records, joined by “and”; a condition that tells them apart may be missing. Identical values can stand only once. After the bases stand the sugars from the 5' end (letter, count) and the backbone: PS all phosphorothioate, else s phosphorothioate and o phosphodiester by linkage. Methylation of C is not given here. e = 2'-O-(2-methoxyethyl) (MOE); d = 2'-deoxy (DNA)

“ACCCACTGGAGCACTGAGAT (sugars e2 d13 e5, PS)” came in with a target mRNA inhibition (HepG2, 0.12 µM) of 52%.

For the sequence “TGGACAAGTCCTGCCCATCT (sugars e2 d13 e5, PS)”, the target mRNA inhibition (HepG2, 0.12 µM) came to 51%.

For the sequence “TTCCACTCTTCTGACAGGTC (sugars e5 d10 e5, PS)”, the target mRNA inhibition (HepG2, 10 µM) was 89% and 84%.

“GTTTCGGACCCACTGTGACC (sugars e3 d14 e3, PS)”: the target mRNA inhibition (HepG2, 0.12 µM) amounted to 71%.

“ATGGAGCTCAGAGACTCAGC (sugars e2 d13 e5, PS)”: the target mRNA inhibition (HepG2, 0.12 µM) was 73%.

In turn, “CGCGCAGGACCCCGGAGTAG (sugars e2 d13 e5, PS)” showed a target mRNA inhibition (HepG2, 0.12 µM) of 67%.

As for “TCTGCGCGATTCACTGAGGA (sugars e5 d10 e5, PS)”, the target mRNA inhibition was determined as 64% (HepG2, 2.5 µM) and 84% (HepG2, 10 µM).

As to “AAGGAAAACTTAGGCATGCT (sugars e5 d10 e5, PS)”, the target mRNA inhibition came out at 63% (HepG2, 2.5 µM) and 80% (HepG2, 10 µM).

In the case of “TTCGGACCCACTGTGACCTC (sugars e3 d14 e3, PS)”, for the setting “HepG2, 0.12 µM”, the target mRNA inhibition is 64%.

Regarding “GTCAAACCTAGGTTCAGACT (sugars e5 d10 e5, PS)”, the target mRNA inhibition by setting is: (HepG2, 2.5 µM) 68%; (HepG2, 10 µM) 87%.

On to “TGCCAATGCCTAGGTCA (sugars e3 d10 e4, PS)”, for which the target mRNA inhibition is, setting by setting: (HepG2, 2.5 µM) 82% and 74%; (HepG2, 10 µM) 70% and 89%.

“TTCCCCAGAGCAGCTCTGAG (sugars e5 d10 e5, PS)” showed a target mRNA inhibition (HepG2, 0.12 µM) of 27%.

For the sequence “GCTAAGCTTATTAGGTGTCT (sugars e5 d10 e5, PS)”, the target mRNA inhibition (HepG2, 2.5 µM) was 75% and 73%; the target mRNA inhibition (HepG2, 10 µM) is 85% and 83%.

Consider “ATTGCCACTCCCATTCTTTG (sugars e3 d14 e3, PS)”, for which, under “HepG2, 0.12 µM”, the target mRNA inhibition was 40%.

Sequence “GCTTCCTCCCACTTCAGTTT (sugars e5 d10 e5, PS)” came in with a target mRNA inhibition (HepG2, 2.5 µM) of 55% and a target mRNA inhibition (HepG2, 10 µM) of 83%.

Sequence “GCCAGTTTCACAAAGCCCTT (sugars e5 d10 e5, PS)” showed a target mRNA inhibition (HepG2, 0.12 µM) of 34%.

In the case of “GGGTCCTCTCCGCTGCC (sugars e3 d10 e4, PS)”, the target mRNA inhibition worked out at 47% (HepG2, 2.5 µM) and 69% (HepG2, 10 µM).

“GATTATTCTAAAACTCAAAT (sugars e5 d10 e5, PS)” registered a target mRNA inhibition (HepG2, 0.12 µM) of 0%.

For “TGCAGCCTGGACAAGTCCTG (sugars e5 d10 e5, PS)”, under “HepG2, 0.12 µM”, the target mRNA inhibition came out at 67%.

“GTGGTGATGGGCTTGGAGTA (sugars e5 d10 e5, PS)”: the target mRNA inhibition (HepG2, 0.12 µM) turned out to be 23%.

As for “GAGCTCAGAGACTCAGCCGC (sugars e3 d14 e3, PS)”, the target mRNA inhibition reads like this: (HepG2, 0.12 µM) 89%; (HepG2, 10 µM) 72% and 73%.

Turning to “GGTTGTGTGTCTTCACCAGC (sugars e5 d10 e5, PS)”, the target mRNA inhibition (HepG2, 0.12 µM) was 64% and 70%; the target mRNA inhibition (HepG2, 2.5 µM) came out at 0%.

Turning to “AGGACCCACTGGAGCACTGA (sugars e2 d13 e5, PS)”, the target mRNA inhibition (HepG2, 0.12 µM) was found to be 75%.

“GGGAAGGATACCGCCAATGA (sugars e5 d10 e5, PS)”: for the setting “HepG2, 0.12 µM”, the target mRNA inhibition is 57%.

For “GCCAATGCCTAGGTCACAGT (sugars e5 d10 e5, PS)”, the target mRNA inhibition was 87% and 93% (HepG2, 2.5 µM); 84% and 90% (HepG2, 10 µM).

Consider “CCCTCTTAGAAGTAATGCTT (sugars e5 d10 e5, PS)”, for which the target mRNA inhibition (HepG2, 10 µM) is 85% and 89%.

Sequence “TTATCCTTGAGGGTCTCATA (sugars e5 d10 e5, PS)” gave a target mRNA inhibition (HepG2, 0.12 µM) of 45%.

For the sequence “ACAGGGCAGATACCTCCAGA (sugars e5 d10 e5, PS)”, the target mRNA inhibition (HepG2, 0.12 µM) turned out to be 58%.

For the sequence “AATAGTCTATGGTGTCCCGG (sugars e5 d10 e5, PS)”, the target mRNA inhibition (HepG2, 0.12 µM) is 63%.

In the case of “GGACCCCGGAGTAGGCGGCT (sugars e5 d10 e5, PS)”, the target mRNA inhibition (HepG2, 2.5 µM) worked out at 30% and the target mRNA inhibition (HepG2, 10 µM) was found to be 82%.

As for “GCACCATAATCTGCACAGGT (sugars e5 d10 e5, PS)”, the target mRNA inhibition is 88% and 86% (HepG2, 2.5 µM); 93% and 89% and 92% (HepG2, 10 µM).

For “GCAGGTTCATCTGCCTTGAC (sugars e5 d10 e5, PS)”, the target mRNA inhibition is, setting by setting: (HepG2, 2.5 µM) 80% and 65%; (HepG2, 10 µM) 81% and 85%.

“CTGGATGGGAAAGTAGTCTC (sugars e5 d10 e5, PS)”: the target mRNA inhibition (HepG2, 0.12 µM) was determined as 38%.

Turning to “GTGTACTTTGAGCATCCCCA (sugars e5 d10 e5, PS)”, the target mRNA inhibition is 63% and 62% (HepG2, 2.5 µM); 88% and 87% (HepG2, 10 µM).

The sequence “GGCATGCTTCCTCCCACTTC (sugars e5 d10 e5, PS)” came in with a target mRNA inhibition (HepG2, 2.5 µM) of 67% and a target mRNA inhibition (HepG2, 10 µM) of 72%.

“ACAGGAAGCCTGGTGACTGC (sugars e5 d10 e5, PS)” gave a target mRNA inhibition (HepG2, 0.12 µM) of 54%.

As to “CCATGTACATGGTGTGGTAC (sugars e5 d10 e5, PS)”, where the note is “HepG2, 0.12 µM”, the target mRNA inhibition came out at 52%.

As for “CCTCCTTAGCTTTAATCCAG (sugars e5 d10 e5, PS)”, the target mRNA inhibition (HepG2, 2.5 µM) worked out at 43% and the target mRNA inhibition (HepG2, 10 µM) is 82%.

As for “AGCAGTCTGCCTGATTCCCT (sugars e5 d10 e5, PS)”, the target mRNA inhibition reads like this: (HepG2, 2.5 µM) 69% and 44%; (HepG2, 10 µM) 87% and 82%.
